Measured values from US11738091B2, “Method for terminating cancer cells with an azole-based compound” (Imam Abdulrahman Bin Faisal University, priority 2019, dated 2023).

Tests used:
[1] = test system: HCT-116 cells; assay: MTT assay of cancer cell viability; details: for attenuating cancer cells proliferation (in words) / effect on cancer cell survivability (in words) / comparison among the five conjugates in decreasing cancer cells proliferation: HCT-116; for dose dependence of effect on cancer cells viability: HCT-116, MTT staining; for comparison among the five conjugates in decreasing cancer cells proliferation: versus Conj. 1, Conj. 2 and Conj. 5
Procedure: CANCER CELL TREATMENTS: Human colorectal carcinoma cells (HCT-116) cells were grown according to a method described in Khan, F. A.; Akhtar, S.; Almohazey, D.; Alomari, M.; Almofty, S. A.; Eliassari, A. “Fluorescent magnetic submicronic polymer (FMSP) nanoparticles induce cell death in human colorectal carcinoma cells” Artif Artif. Cells, Nanomed., Biotechnol. 2018, (doi: 10.1080/21691401.2018.1491476). HCT-116 cells were grown in Dulbecco Modified Eagle Medium (DMEM), 10% fetal bovine serum, L-glutamine, selenium chloride, penicillin, and streptomycin. The cells were cultured in a CO2 incubator (Heracell 150i, Thermo-scientific, USA) at 37° C. under 5% CO2 for 48 to 72 hours. Confluenced cells were seeded into 96-well cell plates and, once the cells became 80% confluenced, the cancer cells were treated with different concentrations ([…]) of Conj. 1, Conj. 2, Conj. 3, Conj. 4, Conj. 5 respectively. […] Each sample was taken in triplicate to obtain a statistical analysis.
CANCER CELLS VIABILITY BY MTT ASSAY: To examine effect of Conj. 1, Conj. 2, Conj. 3, Conj. 4, Conj. 5 on cancer cells, a 3-(4,5-dimethylthiazol-2-yl)-2,5-diphenyltetrazolium bromide (MTT) assay was conducted on the cells. The cancer cells were seeded at 6×10^4 cells/mL concentration in 96-well culture plates containing DMEM, 10% Fetal bovine serum, penicillin, and streptomycin and were incubated in CO2 incubator until the cells were 80% confluenced. The cancer cells were then treated with Conj. 1, Conj. 2, Conj. 3, Conj. 4, Conj. 5 at concentrations of 1.3, 3.26, and 6.5 mg/mL, whereby no conjugate was added in the control groups. A 5.0 mg/mL MTT solution was added into each well, and the cells were again incubated for 4 hours in the CO2 incubator and finally media was changed with the addition of DMSO. The samples were then measured using an ELISA plate reader (Biotek Instruments, USA) at wavelength 570 nm.
The following formula was used to calculate percentage of cell viability: % of Cell viability=[Optical density (O.D) of Conj. 1, Conj. 2, Conj. 3, Conj. 4, or Conj. 5 cells]/[Optical density (O.D) of control cells]×100.
1, Conj. 2, Conj. 3, Conj. 4, Conj. 5 treated groups were calculated. All statistical analyses were completed with GraphPad Prism 6 (GraphPad Software). The difference between control and Conj. 1, Conj. 2, Conj. 3, Conj. 4, Conj. 5 groups by a one-way ANOVA test (*p<0.05, **p<0.01; ***p<0.001) was taken as statistically significant.

[2] = test system: HCT-116 cells; assay: Cancer cell morphology by inverted microscope; assay type: cell-based, human; details: 48 hours, 200x magnification
Excerpt: Cells, Nanomed., Biotechnol. 2018, (doi: 10.1080/21691401.2018.1491476). […] 1, Conj. 2, Conj. 3, Conj. 4, Conj. 5 respectively.
CANCER CELL MORPHOLOGY: After the treating the HTC-116 cells with Conj. 1, Conj. 2, Conj. 3, Conj. 4, Conj. 5, the cells were observed using an inverted microscope (TS100F Eclipse, Nikon, Japan) to evaluate the anatomical and morphological changes.

SiO2-3GPS-Atet [Conj. 3]
attenuating cancer cells proliferation (in words) [1]: highly effective
effect on cancer cell survivability (in words) [1]: profound effects
dose dependence of effect on cancer cells viability [1]: dose dependent effects
comparison among the five conjugates in decreasing cancer cells proliferation [1]: more effective
cancer cell morphology ([2]; HCT-116, 1.3 mg/mL): significant levels of nucleus condensation and nuclear augmentation
cancer cell morphology ([2]; HCT-116, 3.26 mg/mL): nuclear condensation and augmentation of cancer cells
cancer cell morphology ([2]; HCT-116, 6.5 mg/mL): significant loss of cell population

SiO2-3GPS-Atri [Conj. 2]
attenuating cancer cells proliferation (in words) [1]: highly effective
effect on cancer cell survivability (in words) [1]: profound effects
dose dependence of effect on cancer cells viability [1]: dose dependent effects
cancer cell morphology ([2]; HCT-116, 1.3 mg/mL): strong nucleus condensation and nuclear augmentation
cancer cell morphology ([2]; HCT-116, 3.26 mg/mL): further nucleus condensation and augmentation
cancer cell morphology ([2]; HCT-116, 6.5 mg/mL): significant loss of cell population

SiO2-3GPS-Btri [Conj. 4]
attenuating cancer cells proliferation (in words) [1]: highly effective
effect on cancer cell survivability (in words) [1]: profound effects
dose dependence of effect on cancer cells viability [1]: dose dependent effects
comparison among the five conjugates in decreasing cancer cells proliferation [1]: more effective
cancer cell morphology ([2]; HCT-116, 1.3 mg/mL): disintegration of cancer cell bodies
cancer cell morphology ([2]; HCT-116, 3.26 mg/mL): strong nuclear condensation and augmentation
cancer cell morphology ([2]; HCT-116, 6.5 mg/mL): strong nuclear condensation and augmentation

SiO2-3GPS-Imi [Conj. 5]
attenuating cancer cells proliferation (in words) [1]: highly effective
effect on cancer cell survivability (in words) [1]: profound effects
dose dependence of effect on cancer cells viability [1]: dose dependent effects
cancer cell morphology ([2]; HCT-116, 1.3 mg/mL): high levels of nucleus condensation and nuclear augmentation
cancer cell morphology ([2]; HCT-116, 3.26 mg/mL): strong nuclear condensation and augmentation and the beginning of cell membrane disruption and cell death
cancer cell morphology ([2]; HCT-116, 6.5 mg/mL): significant loss of cell population

SiO2-3GPS-Tri [Conj. 1]
attenuating cancer cells proliferation (in words) [1]: highly effective
effect on cancer cell survivability (in words) [1]: profound effects
dose dependence of effect on cancer cells viability [1]: dose dependent effects
cancer cell morphology ([2]; HCT-116, 1.3 mg/mL): strong nucleus condensation and nuclear augmentation
cancer cell morphology ([2]; HCT-116, 3.26 mg/mL): further nucleus condensation and augmentation
cancer cell morphology ([2]; HCT-116, 6.5 mg/mL): significant loss of cell population
